Measurements reported in US20110212100A1, “METHODS FOR MODULATING DEVELOPMENT AND EXPANSION OF IL-17 EXPRESSING CELLS” (priority 2007, published 2011).
Where “and” joins values, the source holds several entries; their conditions need not be identical. Equal values may be shown once.

Key:
[1] = test system: TGFβ-induced Smad phosphorylation; experiment: TGFβ signaling in T and B cells (Smad phosphorylation, lymphocyte responses to TGFβ); assay type: cell-based, mouse; details: HF 2.5-40 nM or 10 nM; SB-431542 10 μM
Protocol: T cells were then activated in the presence or absence of 3 ng/ml. TGFβ. Whole cell extracts were prepared after 1 hour of stimulation and western blot analyses were performed using the indicated antibodies.
(§1) Western blotting: Whole cell lysates were generated from T cells activated for the indicated times. For STAT3 and Smad2/3 western blots cells were harvested, washed in PBS and lysed in 50 mM Tris, pH 7.4, 0.1% SDS, 1% Triton-X100, 140 mM NaCl, 1 mM EDTA, 1 mM EGTA supplemented with protease inhibitors tablets (Roche-Germany), 1 mM NaF and 1 mM Na3VO4. For eIF2α and ATF4 western blots, cells were harvested as above and lysed in 50 mM Tris, pH 7.4, 2% SDS, 20% glycerol and 2 mM EDTA supplemented with protease and phosphatase inhibitors as above. All lysates were cleared via centrifugation and 15-30 μg of protein was resolved by SDS-PAGE. Protein was transferred to nitrocellulose membranes, blocked and blotted using specific antibodies. Antibodies used for western blot analysis were anti-phospho-Smad2, anti-STAT3 (pY705), anti-STAT3, anti-eIF2α^pS51, anti-eIF2α, anti-GCN2^pT898, anti-GCN2 (all from cell signaling technology, Danvers, Mass.). Anti-ATF4/CREB2 and anti-β-actin were purchased from Santa Cruz biotechnology (Santa Cruz, Calif.). […]

[2] = test system: SV-MES mesangial cells; experiment: Stress response in fibroblasts (eIF2α western blot); assay type: cell-based; details: 20 nM HF, 2 hours
Protocol: SV-MES mesangial cells were stimulated for 2 hours with DMSO, 20 nM MAZ1310 or 20 nM HF. Whole cell lysates were analyzed for expression of phosphorylated or total eIF2α or GCN2 by western blotting.
as §1

[3] = test system: cultured fibroblasts; experiment: Non-specific effects on cultured fibroblasts; assay type: cell-based
Protocol: (§2) At concentrations over 80 nM, HF has a variety of non-specific effects on both T-cells and fibroblasts. […] At the recommended tolerated dose for chronic treatment (0.5 mg/day), plasma levels of HF were ˜0.5 ng/ml (1 nM). (de.Jonge et al., Eur J Cancer, vol. 42(12):1768-74 (2006)).

[4] = human, in vivo; cited from earlier work
[5] = test system: T-cells and fibroblasts; experiment: Effects on pro-inflammatory and pro-fibrotic gene expression in T-cells and fibroblasts in vitro; assay type: cell-based
Protocol: as §2
In T-cells and fibroblasts in vitro, HF has highly specific effects on pro-inflammatory and pro-fibrotic gene expression in a dose range of ˜2-40 nM. At doses>80 nM, non-specific effects on protein synthesis and cell proliferation are seen. The compositions are formulated to deliver a dosage of HF that will have specific effects on pro-inflammatory cytokine expression or ECM architecture in the 2-40 nM range, but keep the dosage below levels that can cause non-specific effects.

[6] = test system: fibrosis; details: Pines et al.; cited from earlier work
[7] = test system: FoxP3 expression in CD4+ CD25− T cells; experiment: Foxp3 (Treg marker) expression in TGFβ/IL-6 treated T cells; assay type: cell-based, mouse
Protocol: Low doses of halofuginone (HF) were tested to determine the ability of HF to enhance Treg differentiation, while suppressing Th17 differentiation. Nave. CD4+ T cells (CD4+ CD25−) were isolated from the spleen and peripheral lymph nodes of C57B/6 mice. T cells were then activated using anti-CD3 (0.3 μg/ml) and anti-CD28 (0.5 μg/ml) antibodies either in media alone (row 1, 4), TGFβ alone (3 ng/ml—row 2, 5) or TGFβ (3 ng/ml) plus IL-6 (30 ng/ml) (row 3, 6). […] T cells were cultured for 3 days and CD25 and Foxp3 expression (Treg marker genes) was determine by FACS staining and flow cytometric analyses. Simultaneously, T cells were harvested and re-stimulated for 4 hours using phorbol myristic acetate (PMA; 10 nM), Ionomycin (1 μM) and cytokine secretion was prevented using brefeldin A (20 μg/ml). Following stimulation, the production of IL-17 and IFNγ were determined by intracellular staining and analyzed via flow cytometry. […]
FACS analyses and sorting: All cell surface staining was performed in FACS buffer (PBS/2% FCS/0.1% NaN3) and antibodies were incubated with cells on ice for 20-30 minutes. […] All FACS data was acquired on a FACSCalibur flow cytometer (BD Pharmingen) and analyzed using FlowJo software (Treestar, Inc., Ashland, Oreg.). […]

[8] = test system: mice; details: IP, cited from earlier work

In the case of `O=C(CC1NCCCC1O)Cn1cnc2cc(Br)c(Cl)cc2c1=O` (racemic) [HF, 7-bromo-6-chloro-3-[3-(3-hydroxy-2-piperidinyl)-2-oxopropyl]-4(3H)-quinazolinone], the “effect on TGFβ-induced Smad phosphorylation and other lymphocyte responses to TGFβ, in words” value [1] is reported as “inhibited neither TGFβ-induced Smad phosphorylation”, the “eIF2α phosphorylation in SV-MES mesangial cells, in words” value [2] is reported as “increased eIF2α phosphorylation” and the “concentration inhibiting protein synthesis and cell proliferation in fibroblast culture” value [3] is reported as “over 80 nM”. For the same compound, the “signaling downstream of mTOR in fibroblasts, in words” value [3] was “did not inhibit signaling downstream of mTOR”, the “death of cultured fibroblasts, in words” value ([3]; doses up to 500 nM over 5 days) was “does not, however, cause death” and the “HF in serum during topical treatment, in words” value [4] was “undetectable in serum”. The “dose range of highly specific effects on pro-inflammatory and pro-fibrotic gene expression” value [5] was 2 to 40 nM, the “concentration range for inhibition of fibrosis in vitro” value [6] was 1 to 200 nM and the “Foxp3 expression of T cells differentiated in the presence of HF, in words” value ([7]; 10 nM HF, TGFβ plus IL-6, day 3) was “enhanced Foxp3 expression”. For the same compound, the “concentration increasing FoxP3 expression concomitantly with inhibiting IL-17 expression” value ([7]; TGFβ/IL-6 treated T-cells) was 2.5 to 10 nM and 2.2 to 10 nM, the “radiation induced fibrosis, in words” value ([8]; 1-5 μg/mouse (Xavier et al.)) was “prevented radiation induced fibrosis but not normal healing of irradiated tissue” and the “toxic effect in mice, in words” value ([8]; 1-5 μg/mouse) was “without evident toxic effect”.
